Consider 24 molecules from patent US20260325685A1, “Radiopharmaceutical Compositions Targeting Carbonic Anhydrase IX and Uses Thereof” (RayzeBio, Inc., priority 2023, published 2026).

Read-outs that look alike come from different tables or passages of the source.

One experiment concerns the target T1, human CA-IX (Homo sapiens, UniProt Q16790).
T1 construct: purchased Acro CA9-H82E3
Nature of the experiment: Surface Plasmon Resonance (SPR) binding kinetics to recombinant human CA-IX (Biacore 8K, single-cycle kinetics, 1:1 binding model). Put shortly: (§1)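 Proteins were captured on streptavidin chips at 1200-1800 RU (CA-IX 180 s, CA-XII 75 s injection). Compound was run at 9 concentrations (100-0.39 nM) in PBS-P+ pH 7.4 with 1% DMSO, 120 s association, 1200 s dissociation, 25° C. Rate constants came from reference- and DMSO-corrected curves.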
For orientation: Surface plasmon resonance follows binding to a sensor surface in real time, without labels.

The next experiment concerns the target T2, human CA-XII (Homo sapiens, UniProt O43570).
T2 construct: purchased Creative BioMart CA12-261H
Nature of the experiment: Surface Plasmon Resonance (SPR) binding kinetics to recombinant human CA-XII (Biacore 8K, single-cycle kinetics, 1:1 binding model). The essentials: as §1

The mark [1] stands for this setting: Chelated Metal: Lu-175; SPR, 25° C., pH 7.4; read-out: CAIX KD.
Where [2] appears, read: Chelated Metal: Lu-175, 25° C., pH 7.4, read-out: CAXII KD.
Where [3] appears, read: read-out: CAIX KD; Chelated Metal: Lu-175; SPR, 25° C., pH 7.4.
[4] abbreviates: read-out: CAXII KD, Chelated Metal: Lu-175, 25° C., pH 7.4.

T2 sequence (O43570 25-354): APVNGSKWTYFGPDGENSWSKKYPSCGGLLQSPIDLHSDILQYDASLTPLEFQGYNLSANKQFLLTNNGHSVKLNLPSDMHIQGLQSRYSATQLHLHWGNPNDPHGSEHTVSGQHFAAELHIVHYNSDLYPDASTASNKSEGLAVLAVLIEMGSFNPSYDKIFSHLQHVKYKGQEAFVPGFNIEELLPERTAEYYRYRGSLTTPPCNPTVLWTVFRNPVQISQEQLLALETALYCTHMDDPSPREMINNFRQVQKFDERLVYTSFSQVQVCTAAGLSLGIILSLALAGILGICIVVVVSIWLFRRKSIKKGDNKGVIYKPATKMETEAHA

For the molecule `NS(=O)(=O)c1nnc(NC(=O)C23CC(c4cn(CCNC(=O)[C@@H]5CN(C(=O)CN6CCN(CC(=O)O)CCN(CC(=O)O)CCN(CC(=O)O)CC6)CCN5C(=O)C[C@H](NC(=O)C[C@H](NC(=O)Cc5n[nH]c6ccc(F)cc56)C(=O)O)C(=O)O)nn4)(C2)C3)s1.[Lu+3]` [Compound 109.11], the values for the Kd at human CA-IX (setting [1]) and at human CA-XII (setting [2]) were less than 1 nM and 2.5 to 10 nM, respectively.
As to `CC(CCC(=O)N[C@@H](CC(=O)N[C@@H](CC(=O)N1CCN(C(=O)NCCOCCNC(=O)CN2CCN(CC(=O)O)CCN(CC(=O)O)CCN(CC(=O)O)CC2)C[C@@H]1CCCCn1cc(CCCC(=O)Nc2nnc(S(N)(=O)=O)s2)nn1)C(=O)O)C(=O)O)(c1ccc(O)cc1)c1ccc(O)cc1.[Lu+3]` [Compound 123], the Kd on human CA-IX (setting [3]) was 1 to 2.5 nM; on human CA-XII (setting [4]) it was 2.5 to 10 nM.
The like results for `CC(CCC(=O)N[C@@H](CC(=O)N[C@@H](CC(=O)N1CCN(C(=O)CCOCCOCCOCCOCCOCCOCCOCCOCCNC(=O)CN2CCN(CC(=O)O)CCN(CC(=O)O)CCN(CC(=O)O)CC2)C[C@H]1C(=O)NCCn1cc(C23CC(C(=O)Nc4nnc(S(N)(=O)=O)s4)(C2)C3)nn1)C(=O)O)C(=O)O)(c1ccc(O)cc1)c1ccc(O)cc1.[Lu+3]` [Compound 129] were, in that order, 1 to 2.5 nM and greater than 10 nM.
Consider `CC(CCC(=O)N1CCNC[C@H]1C(=O)N[C@@H](CC(=O)N1CCN(C(=O)CN2CCN(CC(=O)O)CCN(CC(=O)O)CCN(CC(=O)O)CC2)C[C@@H]1C(=O)NCCn1cc(C23CC(C(=O)Nc4nnc(S(N)(=O)=O)s4)(C2)C3)nn1)C(N)=O)(c1ccc(O)cc1)c1ccc(O)cc1.[Lu+3]` [Compound 108.3], for which the values for the Kd on human CA-IX (setting [1]) and at human CA-XII (setting [2]) were 2.5 to 10 nM and greater than 10 nM, respectively.
The matching figures for `CC(CCCC(=O)N1CCC(CN)(C(=O)NCC(=O)N2CCN(C(=O)CN3CCN(CC(=O)O)CCN(CC(=O)O)CCN(CC(=O)O)CC3)C[C@@H]2C(=O)NCCn2cc(C34CC(C(=O)Nc5nnc(S(N)(=O)=O)s5)(C3)C4)nn2)CC1)(c1ccc(O)cc1)c1ccc(O)cc1.[Lu+3]` [Compound 107.51]: 1 to 2.5 nM and greater than 10 nM.
The matching figures for `NS(=O)(=O)c1nnc(NC(=O)C23CCC(c4cn(CCNC(=O)[C@@H]5CN(C(=O)CN6CCN(CC(=O)O)CCN(CC(=O)O)CCN(CC(=O)O)CC6)CCN5C(=O)CNC(=O)C5(C(=O)O)CCN(C(=O)CCC6CCCCC6)CC5)nn4)(CC2)CC3)s1.[Lu+3]` [Compound 107.10]: less than 1 nM and less than 1 nM.
For the molecule `CC(CCC(=O)N[C@@H](CC(=O)N[C@@H](CC(=O)N1CCN(C(=O)CN2CCN(CC(=O)O)CCN(CC(=O)O)CCN(CC(=O)O)CC2)C[C@H]1C(=O)NCCn1nnc(C(=O)O)c1C12CC(C(=O)Nc3nnc(S(N)(=O)=O)s3)(C1)C2)C(=O)O)C(=O)O)(c1ccc(O)cc1)c1ccc(O)cc1.[Lu+3]` [Compound 107.61], the Kd on human CA-IX (setting [1]) is 1 to 2.5 nM; at human CA-XII (setting [2]) it was greater than 10 nM.
In the case of `NS(=O)(=O)c1nnc(NC(=O)C23CC(c4cn(CCCC[C@@H](C(=O)NCCOCCOCCNC(=O)CN5CCN(CC(=O)O)CCN(CC(=O)O)CCN(CC(=O)O)CC5)n5cc(C[C@H](NC(=O)C[C@H](NC(=O)c6n[nH]c7ccccc67)C(=O)O)C(=O)O)nn5)nn4)(C2)C3)s1.[Lu+3]` [Compound 101.1], the Kd on human CA-IX (setting [1]) was less than 1 nM; at human CA-XII (setting [2]) it was 2.5 to 10 nM.
With `CC(CCC(=O)N[C@@H](CC(=O)N[C@@H](CCC(=O)N1CCN(C(=O)CN2CCN(CC(=O)O)CCN(CC(=O)O)CCN(CC(=O)O)CC2)C[C@H]1C(=O)NCCn1cc(C23CC(C(=O)Nc4nnc(S(N)(=O)=O)s4)(C2)C3)nn1)C(=O)O)C(=O)O)(c1ccc(O)cc1)c1ccc(O)cc1.[Lu+3]` [Compound 107.39], the Kd at human CA-IX (setting [1]) was less than 1 nM; at human CA-XII (setting [2]), greater than 10 nM.
The like results for `CC(CCCC(=O)N1CCC(C(=O)O)(C(=O)NCC(=O)N2CCN(C(=O)CN3CCN(CC(=O)O)CCN(CC(=O)O)CCN(CC(=O)O)CC3)C[C@H]2C(=O)NCCn2cc(C34CC(C(=O)Nc5nnc(S(N)(=O)=O)s5)(C3)C4)nn2)CC1)(c1ccc(O)cc1)c1ccc(O)cc1.[Lu+3]` [Compound 112.18] were, in that order, 1 to 2.5 nM and greater than 10 nM.
Turning to `CC(CCCC(=O)N1CCC(C(N)=O)(C(=O)NCC(=O)N[C@@H](CCCCn2cc(CCCC(=O)Nc3nnc(S(N)(=O)=O)s3)nn2)C(=O)NCCOCCOCCNC(=O)CN2CCN(CC(=O)O)CCN(CC(=O)O)CCN(CC(=O)O)CC2)CC1)(c1ccc(O)cc1)c1ccc(O)cc1` [Compound 102.3], the Kd on human CA-IX (Chelated Metal: None; SPR, 25° C., pH 7.4; read-out: CAIX KD) is less than 1 nM; at human CA-XII (Chelated Metal: None, 25° C., pH 7.4, read-out: CAXII KD), greater than 10 nM. Besides, the “Ratio (CAXII/CAIX)” value at human CA-IX (KD ratio CAXII/CAIX; Chelated Metal: None) was “*** (10 < *** ≤ 50)”.
With `CC1(C)CN(C(=O)CCCC(C)(c2ccc(O)cc2)c2ccc(O)cc2)[C@H](C(=O)N[C@@H](CC(=O)N2CCN(C(=O)CN3CCN(CC(=O)O)CCN(CC(=O)O)CCN(CC(=O)O)CC3)C[C@@H]2C(=O)NCCn2cc(C34CC(C(=O)Nc5nnc(S(N)(=O)=O)s5)(C3)C4)nn2)C(=O)O)CO1.[Lu+3]` [Compound 107.32], the Kd was less than 1 nM on human CA-IX (setting [1]) and greater than 10 nM at human CA-XII (setting [2]).
The matching figures for `Cc1c(C(=O)N[C@@H](CC(=O)N[C@@H](CC(=O)N2CCN(C(=O)CN3CCN(CC(=O)O)CCN(CC(=O)O)CCN(CC(=O)O)CC3)C[C@H]2C(=O)NCCn2cc(C34CC(C(=O)Nc5nnc(S(N)(=O)=O)s5)(C3)C4)nn2)C(=O)O)C(=O)O)n[nH]c1C(F)(F)F.[Lu+3]` [Compound 109.3]: less than 1 nM and less than 1 nM.
The matching figures for `CC(CCC(=O)N[C@@H](CC(=O)N[C@@H](CC(=O)NC1(CCCCn2cc(CCCCC(=O)Nc3nnc(S(N)(=O)=O)s3)nn2)CCN(C(=O)OCCOCCNC(=O)CN2CCN(CC(=O)O)CCN(CC(=O)O)CCN(CC(=O)O)CC2)CC1)C(=O)O)C(=O)O)(c1ccc(O)cc1)c1ccc(O)cc1.[Lu+3]` [Compound 116.1]: 1 to 2.5 nM and 2.5 to 10 nM.
The like results for `NS(=O)(=O)c1nnc(NC(=O)C23CC(c4cn(CCNC(=O)[C@@H]5CN(C(=O)CN6CCN(CC(=O)O)CCN(CC(=O)O)CCN(CC(=O)O)CC6)CCN5C(=O)C[C@H](NC(=O)C[C@H](NC(=O)c5ccc(C6CC6)cn5)C(=O)O)C(=O)O)nn4)(C2)C3)s1.[Lu+3]` [Compound 109.19] were, in that order, less than 1 nM and 1 to 2.5 nM.
On to `CC(CCC(=O)N[C@@H](CC(=O)N[C@@H](CC(=O)N1CCN(C(=O)CN2CCN(CC(=O)O)CCN(CC(=O)O)CCN(CC(=O)O)CC2)C[C@H]1C(=O)NCCn1cc(C23CC(C(=O)Nc4nnc(S(N)(=O)=O)s4)(C2)C3)nn1)C(=O)O)C(N)=O)(c1ccc(O)cc1)c1ccc(O)cc1.[Lu+3]` [Compound 107.50], for which the Kd on human CA-IX (setting [1]) was less than 1 nM; at human CA-XII (setting [2]), greater than 10 nM.
On to `CC(CCC(=O)N[C@@H](CC(=O)N[C@@H](CC(=O)NC1(C(=O)NCCn2cc(C34CC(C(=O)Nc5nnc(S(N)(=O)=O)s5)(C3)C4)nn2)CCN(C(=O)CN2CCN(CC(=O)O)CCN(CC(=O)O)CCN(CC(=O)O)CC2)CC1)C(=O)O)C(=O)O)(c1ccc(O)cc1)c1ccc(O)cc1.[Lu+3]` [Compound 117], for which the Kd is 1 to 2.5 nM at human CA-IX (setting [3]) and greater than 10 nM on human CA-XII (setting [4]).
As for `NS(=O)(=O)c1nnc(NC(=O)C23CC(c4cn(CCNC(=O)[C@@H]5CN(C(=O)CN6CCN(CC(=O)O)CCN(CC(=O)O)CCN(CC(=O)O)CC6)CCN5C(=O)C[C@H](NC(=O)C[C@H](NC(=O)c5ccc(CC6CC6)cc5)C(=O)O)C(=O)O)nn4)(C2)C3)s1.[Lu+3]` [Compound 109.38], the Kd at human CA-IX (setting [1]) was less than 1 nM; on human CA-XII (setting [2]), 2.5 to 10 nM.
In the case of `NS(=O)(=O)c1nnc(NC(=O)C23CC(c4cn(CCNC(=O)[C@@H]5CN(C(=O)CN6CCN(CC(=O)O)CCN(CC(=O)O)CCN(CC(=O)O)CC6)CCN5C(=O)CNC(=O)C5(C(=O)O)CCN(C(=O)CCCCc6ccc(I)cc6)CC5)nn4)(C2)C3)s1.[Lu+3]` [Compound 112.19], the Kd is less than 1 nM on human CA-IX (setting [1]) and greater than 10 nM at human CA-XII (setting [2]).
The like results for `CC(CCCC(=O)N1CCC(C(=O)O)(C(=O)NCC(=O)N[C@@H](CCCCn2cc(CCCC(=O)Nc3nnc(S(N)(=O)=O)s3)nn2)C(=O)NCCOCCOCCNC(=O)CN2CCN(CC(=O)O)CCN(CC(=O)O)CCN(CC(=O)O)CC2)CC1)(c1ccc(O)cc1)c1ccc(O)cc1.[Lu+3]` [Compound 102.1] were, in that order, less than 1 nM and greater than 10 nM.
Turning to `NS(=O)(=O)c1nnc(NC(=O)C23CCC(c4cn(CCNC(=O)[C@@H]5CN(C(=O)CN6CCN(CC(=O)O)CCN(CC(=O)O)CCN(CC(=O)O)CC6)CCN5C(=O)CC[C@H](NC(=O)C[C@H](NC(=O)CCC56CCC(CC5)C6)C(=O)O)C(=O)O)nn4)(CC2)CC3)s1.[Lu+3]` [Compound 109.57], the Kd at human CA-IX (setting [1]) and at human CA-XII (setting [2]) was less than 1 nM in each case.
Regarding `CC(CCCC(=O)N1CCC(C(N)=O)(C(=O)NCC(=O)NC2(C(=O)NCCn3cc(C45CC(c6cn7nc(S(N)(=O)=O)sc7n6)(C4)C5)nn3)CCN(C(=O)CN3CCN(CC(=O)O)CCN(CC(=O)O)CCN(CC(=O)O)CC3)CC2)CC1)(c1ccc(O)cc1)c1ccc(O)cc1.[Lu+3]` [Compound 117.5], the Kd at human CA-IX (setting [1]) is less than 1 nM; on human CA-XII (setting [2]) it was 2.5 to 10 nM.
Consider `CC(CCC(=O)N1CCOC[C@H]1C(=O)N[C@@H](CC(=O)N1CCN(C(=O)CN2CCN(CC(=O)O)CCN(CC(=O)O)CCN(CC(=O)O)CC2)C[C@@H]1Cn1cc(C23CC(C(=O)Nc4nnc(S(N)(=O)=O)s4)(C2)C3)nn1)C(=O)O)(c1ccc(O)cc1)c1ccc(O)cc1.[Lu+3]` [Compound 114], for which the results for the Kd at human CA-IX (setting [3]) and on human CA-XII (setting [4]) were 1 to 2.5 nM and greater than 10 nM, respectively.
The matching figures for `CC(CCC(=O)N[C@@H](CC(=O)N[C@@H](CC(=O)N[C@@H](CCCCn1nnc(C(=O)O)c1C12CCC(C(=O)Nc3nnc(S(N)(=O)=O)s3)(CC1)CC2)C(=O)NCCOCCOCCNC(=O)CN1CCN(CC(=O)O)CCN(CC(=O)O)CCN(CC(=O)O)CC1)C(=O)O)C(=O)O)(c1ccc(O)cc1)c1ccc(O)cc1.[Lu+3]` [Compound 122]: 1 to 2.5 nM and 1 to 2.5 nM.

By Kd is commonly meant the equilibrium constant for the complex coming apart.
